# According to patent US20240423988A1, “Improvement of Tumor Immunogenicity by Means of Splicing-Controlling Compound” (Kyoto University, priority 2021, published 2024):
# Legend:
# MC38 tumors = assay: MC38 tumor-bearing model; assay type: in vivo
# Protocol: (§1) [FIG. 1-1] FIG. 1. Chemical activation of SRSFs exerts antitumor effects in a CD8^+ T cell-dependent manner and potentiates the response to PD-1 blockade. A: Experimental procedure involving an MC38 tumor-bearing model. B and C: Tumor volumes (B) and survival (C) are shown (n=12/group). ** represents p<0.01; and *** represents p<0.001. D and E: MC38 cells were treated with Compound 1 for 72 hours (D) or for the indicated time (E). Cell proliferation and cell death were measured using CCK-8 and LDH assays, respectively (n=3/group). F and G: Representative images (F) and quantitative data (G) of flow cytometry are shown (n=[…]/group). * represents p<0.05. H: Experimental procedure of antibody injection in an MC38 tumor-bearing model.
# [FIG. 1-2] Continuation of FIG. 1. I to L; Representative images (I and K) and quantitative data (J and L) of flow cytometry are shown (n=7/group for spleen (J); n=10/group for tumor (L)). *** represents p<0.001. M and N: Tumor growth curves (M) and tumor volumes on day 23 (N) are shown (n=10/group). * represents p<0.05. “ns” represents “not significant”. O and P: Tumor volumes of mice (n=12/group) are shown collectively (O) or individually (P). ** represents p<0.01, and *** represents p<0.001, vs. isotype IgG+vehicle. # represents p<0.05, and […] represents p<0.001, between the indicated groups. Q: Changes in body weight of mice (n=5/group). In FIG. 1, all data are shown as the mean±SEM. All experiments were performed at least twice. Statistical significance was determined using unpaired Student's t-test for (G), (J), (L), and (N), and one-way ANOVA followed by Bonferroni's multiple comparisons test for (B) and (O).
# (§2) First, in vivo activity was assessed using syngeneic MC38 tumors intradermally transplanted into […] mice (FIG. 1-1A).
# Based on these observations, whether the Compound 1 induced antitumor effects were due to enhanced cancer immunity was then examined. Endogenous CD8^+ T cells were depleted using CD8-depleting antibody (αCD8), and the antitumor effects of Compound 1 administration were evaluated (FIG. 1-1H).
# MC38 cells [1] = assay: Cell proliferation and cell death, CCK-8 and LDH assays; assay type: cell-based, murine; details: concentrations effective in vivo
# Protocol: as §1, §2
# MC38 cells [2] = assay: RT-PCR analysis with neojunction primers; assay type: cell-based, murine; details: 10 μM, 6 hours
# Protocol: [FIG. 5-2] Continuation of FIG. 5. D and E: RT-PCR analysis for splice-neoantigen coding forms (splice-NA forms) in MC38 cells treated with 10 µM Compound 1 or vehicle control (0.1% DMSO) for 6 hours. Actb served as a loading control. * represents p<0.05, ** represents p<0.01, and *** represents p<0.001. F: Splice-neoantigen producing rates calculated from RNA-seq data (n=3 biological replicates) are indicated as the APSI (Compound 1-DMSO). All data are shown as the mean±SEM. All experiments were performed at least twice. Statistical significance was determined using unpaired Student's t-test for (B) and (E).
# In addition to the RNA-seq analysis, the induction of these splice-neoantigen-coding transcripts via treatment with Compound 1 was also validated using RT-PCR analysis with neojunction primers in MC38 cells (FIGS. 5-2D and 5-2E). The immunogenicity of the identified splice-neoantigens was confirmed using an IFN-γ ELISpot assay.
# Total RNA was extracted from cells using a RNeasy Mini Kit (Qiagen), according to the manufacturer's protocol, and subjected to reverse transcription using a High Capacity cDNA Reverse Transcription Kit (Applied Biosystems, Foster City, CA). Genes were amplified with KOD One DNA polymerase (ToYoBo) and target-specific primer sets. […] Ethidium bromide-stained images were captured using a ChemiDoc MP Imaging System and the data were analyzed using ImageJ software. […]
# [3] = test system: IKBKAP gene with IVS20+6T>C mutation; details: in vitro and in vivo; cited from earlier work
# [4] = syngeneic MC38 tumors intradermally transplanted
structure (smiles),measurement,setting,value
Clc1nc(NCc2ccco2)c2[nH]cnc2n1 [Compound 1],tumor suppression when CD8^+ T cells were depleted,MC38 tumors; CD8-depleting antibody (αCD8),not effective
same,suppressed tumor growth,"MC38 tumors; day 23, vs. isotype IgG+vehicle",28.5%
same,frequency of tumor-infiltrating CD8+ T cells,"MC38 tumors; extracted tumors, flow cytometry",about 1.5 fold
same,changes in the expression of PD-L1,MC38 tumors; host dendritic cells or macrophages,not detected
same,body weight or apparent adverse effects,"MC38 tumors; mouse, in vivo",no change in body weight or apparent adverse effects
same,in vivo tumor growth,MC38 tumors; [4],tumor growth suppression
same,survival,MC38 tumors; [4],prolonged survival
same,cytotoxicity or cytostasis in vitro,MC38 cells [1],not associated with cytotoxicity or cytostasis
same,splice-neoantigen-coding transcripts,MC38 cells [2],induction
same,aberrant splicing in the IKBKAP gene,[3],able to improve
